The record followed here is ChEMBL document CHEMBL3988442, “University of Dundee, Small-Polar-MMV Screening Library” (2021).

Values joined by “and” are separate entries in the source; they are usually repeats but may differ in a detail not shown here. Equal values may be shown once.

As usually defined, the pIC50 is the IC50 on a negative log10 scale, so that one unit is a factor of ten. High values mean a low IC50, low ones a high IC50.

Experiment [1] relates to Mycobacterium tuberculosis. Briefly: Cornell M. t heat shock assay. It counts as functional, organism-based. The note with it: for IC50: Mycobacterium tuberculosis.
Experiment [2] in a line: In vitro enzyme assay to detect hydrolysis of chlorophenol red-beta-D-[…] directly proportional to the number of Toxoplasma stably expressing beta-galactosidase. The format is functional, organism-based, Toxoplasma gondii. The note with it: for IC50: Toxoplasma gondii.
For the next experiment, the system named is Plasmodium falciparum. Nature of the experiment: Calibr Malaria Delayed Death Assay SOP. It counts as functional, organism-based. The note with it: for IC50: Plasmodium falciparum.
The target in the next experiment is T1, Histidine--tRNA ligase (Leishmania infantum, UniProt A4I591).
T1 sequence (A4I591 whole entry): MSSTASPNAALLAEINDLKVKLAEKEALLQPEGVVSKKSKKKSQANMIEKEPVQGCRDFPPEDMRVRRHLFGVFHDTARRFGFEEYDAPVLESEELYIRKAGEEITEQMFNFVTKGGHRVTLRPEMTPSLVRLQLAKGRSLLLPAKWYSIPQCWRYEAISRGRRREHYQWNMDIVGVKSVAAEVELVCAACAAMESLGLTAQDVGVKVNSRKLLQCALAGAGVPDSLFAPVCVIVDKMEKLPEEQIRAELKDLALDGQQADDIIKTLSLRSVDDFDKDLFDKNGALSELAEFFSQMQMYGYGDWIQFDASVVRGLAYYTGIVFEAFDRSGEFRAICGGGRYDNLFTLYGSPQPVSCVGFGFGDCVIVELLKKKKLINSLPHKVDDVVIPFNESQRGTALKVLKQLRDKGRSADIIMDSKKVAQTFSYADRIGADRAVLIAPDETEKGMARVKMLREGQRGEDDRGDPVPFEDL
Briefly: Leishmania infantum Histidine tRNA synthetase (LdHisRS). The format is functional.

A further experiment relates to Leishmania donovani. Briefly: Leishmania intramacrophage assay. It counts as functional, organism-based. The note with it: for IC50: Leishmania donovani.
A short description of experiment [3]: microbe, parasite or virus in culture. The note with it: Mycobacterium tuberculosis, 96 h, read-out: pIC50 (converted).
A short description of experiment [4]: microbe, parasite or virus in culture. The note with it: Mycobacterium tuberculosis, 72 h, read-out: pIC50 (converted).
For a further experiment, the target named is Tryptophan--tRNA ligase (Mycobacterium tuberculosis (strain ATCC 25618 / H37Rv), UniProt P9WFT3). Nature of the experiment: Biochemical assay for Mt-TrpRS. The format is functional.
The target of another experiment is ClpP1P2 (Mycobacterium tuberculosis (strain ATCC 25618 / H37Rv), UniProt P9WPC3+P9WPC5). Briefly: in vitro assay to detect presence of AMC directly proportional to the activity of ClpP1P2. GHDDI collaboration. It counts as functional.

With `Cc1ncc(CNCCO)c2cc(C(=O)c3ccc(Br)cc3)oc12.Cl`, the values for the IC50 (in experiment [1]; in experiment [2]; with Plasmodium falciparum) were more than 49 µM, 9.37 µM and 0.541 µM, respectively. The compound further had a pIC50 in the experiment with Plasmodium falciparum of 6.356.

On to `Cc1nn(C)c(C)c1CCn1cncc1-c1ccc2c(c1)CC(C)N2C.Cl` (stereo not drawn), for which the IC50 is more than 100 µM in experiment [1]; 43.1 µM and 43 µM on Histidine--tRNA ligase; 1.72 µM in the experiment on Plasmodium falciparum; more than 50.1 µM with Leishmania donovani. The compound also showed a pIC50 in the experiment on Plasmodium falciparum of 5.741.

`Cc1nc(-n2nc(C3CC3)cc2NC(=O)C(C)C)[nH]c(=O)c1C`: the IC50 in experiment [3] was 14.2 µM; in [1], 7.58 µM; in [2], 3.09 µM; in experiment [4] it was 10.2 µM. In experiment [2], the negative-log IC50 (pIC50) was found to be 5.686.

For `CC1(c2ccccc2)CCCN(Cc2cncn2C2CCCC2)C1` (stereo not drawn), the IC50 is 18.5 µM in [3], 14.4 µM in experiment [1], 4.15 µM in experiment [2] and 20.4 µM in experiment [4].

Regarding `CS(=O)(=O)N[C@@H]1CN(C(=O)c2cc3ccccc3s2)C[C@H]1O`, the IC50 against Tryptophan--tRNA ligase is more than 195 µM; in [3] it was more than 50.1 µM; in experiment [1] it was 24.6 µM; in [4], 25.4 µM. The pIC50 in experiment [1] was found to be 4.54.

Regarding `Cc1ccc(Oc2cc(F)ccc2O[C@@H]2CCC[C@@H](N)[C@H]2O)cc1`, the IC50 is 47.8 µM in [3]; 33.6 µM in experiment [1]; 8.59 µM in [2]; 39.4 µM in [4]; 0.584 µM with Plasmodium falciparum; 6.4 µM with Leishmania donovani. Besides, the pIC50 in experiment [1] is 4.493; in the experiment on Plasmodium falciparum it was 6.291; with Leishmania donovani, 4.961.

With `COc1cccc(CNCc2nc3ccccc3c(=O)[nH]2)c1`, the values for the IC50 (against Tryptophan--tRNA ligase; in [1]) were more than 195 µM and 67.4 µM, respectively.

Take `CC(C)C[C@H](N)COc1cccc(F)c1Oc1cccc(Cl)c1`: the IC50 was more than 100 µM on ClpP1P2, 22.6 µM in experiment [3], 13.9 µM in experiment [1] and 18.5 µM in experiment [4].

Turning to `CC(C)N(C(=O)Cn1c(-c2ccco2)cc2cccnc21)C(C)C`, the IC50 (on ClpP1P2; in experiment [1]) was more than 100 µM in each case.

For `O=C(CN1CC(c2nc(C3CC3)no2)C1)N1CCOCC1.O=C(O)C(=O)O`, the values for the IC50 in experiment [1] and in experiment [2] were more than 100 µM and 5.21 µM, respectively. In addition, in experiment [2], the pIC50 is 5.075.

Regarding `CC(C)c1ncc2c(n1)CN(Cc1noc(-c3ccccc3)n1)CC2`, the IC50 on ClpP1P2 was more than 100 µM; in experiment [1], 36.9 µM.

Turning to `Cc1noc(NC(=O)c2cccc(Br)c2)n1`, the IC50 is 41.8 µM in [3], 16 µM in experiment [1] and 46.3 µM in [4]. Also, the negative logarithm of the IC50 (pIC50) in [1] was determined as 4.54.

In the case of `CN(C)[C@@H]1CN(Cc2ccccc2O)C[C@H]1c1cn(C)c2ccccc12`, the IC50 at ClpP1P2 is more than 100 µM; in experiment [1], 28.3 µM.

As to `CCSCCNc1cc(C)nc2c(C)c(C)nn12`, the IC50 in [3] was 7.02 µM; in [1], 23.5 µM; in experiment [4], 5.48 µM.

For the compound `CN1CCCCC1c1ncc2c(n1)CCN(Cc1ccc(Cl)c(F)c1)C2` (stereo not drawn), the pIC50 in experiment [1] is on record as 4.295; with Plasmodium falciparum it was 5.794. Also, the IC50 in [1] was 50.6 µM; in the experiment with Plasmodium falciparum, 1.55 µM.

For `Fc1ccccc1CN1CCC[C@@H](Cn2nnc(-c3cccs3)n2)C1`, the IC50 in [3] was 33.3 µM; in experiment [1] it was more than 100 µM; in experiment [4], 16.9 µM.

With `Cn1c(CCN2CCN(c3ccc(O)cc3)CC2)nc2ccccc21`, the IC50 in experiment [1] was 68.5 µM; in experiment [2], 23.8 µM. In experiment [2], this compound had a pIC50 of 4.61.

Take `Oc1cc(C2CCCCN2Cc2cccs2)nc(-c2ccccn2)n1` (stereo not drawn): the IC50 was 17.3 µM in experiment [1] and 2.42 µM in [2].

On to `Cc1ccc(Oc2c(F)cccc2OC[C@@H](N)CC(C)C)cc1`, for which the IC50 is 25.5 µM in [3], 25.1 µM in [1], 23.4 µM in [4] and 12.4 µM in the experiment with Leishmania donovani. This compound also displayed a pIC50 with Leishmania donovani of 5.171.

For the compound `Cc1ccc(S(=O)(=O)NCCc2ccoc2)s1`, the IC50 in experiment [3] is 46.2 µM; in experiment [1], 31 µM; in experiment [4], 38 µM.

With `Cc1nnc(NCc2ccccc2F)c(C#N)c1C`, the IC50 in experiment [1] was 78.6 µM; at Histidine--tRNA ligase it was 16.9 µM and 23.1 µM.

On to `Cc1ccc(CN(CCCn2ccnc2)Cc2cc(F)ccc2F)s1.O=C(O)CC(O)(CC(=O)O)C(=O)O`, for which, in experiment [1], the pIC50 is 4.62 and the IC50 is 18.9 µM. For the same compound, the IC50 in [2] was 7.16 µM.

In experiment [1], `COc1ccc(F)c(CN(CCCn2ccnc2)Cc2ccc(C)s2)c1.O=C(O)CC(O)(CC(=O)O)C(=O)O` showed a pIC50 of 4.599 and an IC50 of 27.4 µM. The IC50 in [2] was 7.3 µM.

As for `CC(C)C[C@H](N)COc1cccc(F)c1Oc1ccc(Cl)cc1`, the IC50 in experiment [3] is 21 µM; in experiment [1], 20.5 µM; in [4] it was 17.6 µM.

`Cc1csc(C(Cc2ccsc2)NC(=O)CN(C)Cc2ccccn2)n1` (stereo not drawn): the IC50 (at ClpP1P2; in experiment [1]) was more than 100 µM in each case.

Regarding `CCCNC(=O)NC(=O)CNC(C)(C)c1ccc2c(c1)OCCO2`, the IC50 is 13.3 µM in [3], 23.5 µM in experiment [1] and 19 µM in experiment [4].

For the compound `CCN(CC)c1nc(Nc2cccc(C(C)O)c2)nc2ccccc12` (stereo not drawn), the IC50 on ClpP1P2 was more than 100 µM; in [3], 22.9 µM; in experiment [1] it was 12.2 µM; in experiment [2], 2.08 µM; in experiment [4], 25.7 µM. The compound further had a pIC50 in [2] of 5.586.

Turning to `Cc1cccc(CNC(Cc2ccsc2)c2nc(C)c(C)s2)n1.Cl` (stereo not drawn), the IC50 at ClpP1P2 was more than 100 µM; in experiment [3], more than 50.1 µM; in experiment [1], 8.25 µM; in experiment [4] it was 31.7 µM. Further, the pIC50 in experiment [1] came to 5.24.

On to `COc1cccc(OC)c1CNC(Cc1ccsc1)c1ccc(C)cn1` (stereo not drawn), for which the IC50 was 12.5 µM in experiment [3], 27 µM in experiment [1], 16.4 µM in experiment [4] and 1.09 µM with Plasmodium falciparum. The compound further returned a pIC50 with Plasmodium falciparum of 5.969.

Consider `COc1ccc(CNC(Cc2ccsc2)c2ccc(C)cn2)c(OC)c1` (stereo not drawn), for which the IC50 in experiment [3] was more than 50.1 µM; in [1] it was 17.9 µM; in [4] it was 48.5 µM.

In the case of `Cc1cc(=O)[nH]c(-n2nc(C3CC3)cc2N)n1`, the results for the IC50 in experiment [3], in experiment [1] and in [4] were 41.2 µM, 27.5 µM and 30.1 µM, respectively. The pIC50 in the experiment on Leishmania donovani was < 4.3 and 4.677.

Consider `CN[C@@H]1CCC[C@@H](Oc2ccccc2Oc2ccc(C)cc2)[C@@H]1O`, for which the IC50 in [3] was more than 50.1 µM; in experiment [1] it was 89.2 µM; in experiment [4] it was 35.8 µM; in the experiment on Plasmodium falciparum, 0.349 µM; in the experiment on Leishmania donovani, 5.46 µM. For the same compound, the results for the negative logarithm of the IC50 (pIC50) (in experiment [1]; in the experiment with Plasmodium falciparum; with Leishmania donovani) were 4.304, 6.476 and 5.128, respectively.

In the case of `Cl.Clc1cccc(N[C@H]2CCCN[C@H]2Cc2ccccc2)c1`, the IC50 in [3] is 17 µM; in experiment [1], 7.22 µM; in [4], 8.59 µM; in the experiment on Plasmodium falciparum, 0.981 µM. In addition, the negative logarithm of the IC50 (pIC50) in the experiment with Plasmodium falciparum is given as 6.045.

Take `Cc1cccc(CN2CCN(C(=O)c3cc(C4CC4)[nH]n3)CC2)c1`: the IC50 was 25 µM in experiment [3], 77.1 µM in experiment [1] and 25.8 µM in experiment [4].

On to `Cc1nc(C2CCNCC2)cc(N(C)Cc2cc3cc(F)ccc3[nH]2)n1`, for which the IC50 is 72.3 µM in experiment [1], 0.803 µM in the experiment on Plasmodium falciparum and 11.9 µM with Leishmania donovani. Moreover, the negative logarithm of the IC50 (pIC50) in experiment [2] was 5.24 and 4.835; in the experiment on Plasmodium falciparum it was 6.017; in the experiment on Leishmania donovani, 4.976.

Consider `Fc1cccc(Nc2nc(N3CCCC3)nc3c2CNCC3)c1`, for which the IC50 was 18.8 µM in [3], 25.8 µM in [1], 23.6 µM in [4] and 3.49 µM with Leishmania donovani. In addition, the pIC50 in the experiment on Leishmania donovani is given as 5.271.

On to `Cc1ccc(CN(CCCn2ccnc2)Cc2cccs2)s1`, for which the IC50 is more than 195 µM at Tryptophan--tRNA ligase, 25.9 µM in experiment [3], 19.9 µM in [1] and 42 µM in experiment [4].

With `CN(C)CCN(C)C(=O)Cn1cccc2cc(-c3ccc(F)cc3)nc1-2`, the IC50 on ClpP1P2 was more than 100 µM; in experiment [1], 42.9 µM; with Plasmodium falciparum it was 0.489 µM; in the experiment on Leishmania donovani it was 9.3 µM. The pIC50 is given as 4.438 in experiment [1], 6.323 with Plasmodium falciparum and 4.872 in the experiment on Leishmania donovani.

With `c1cnc(N2CCC(c3csc(Nc4cnccn4)n3)CC2)nc1`, the results for the IC50 (in [1]; in the experiment with Plasmodium falciparum) were more than 100 µM and 0.0108 µM, respectively.
